# Test results from patent US9296776B2, “Substituted nucleoside derivatives with antiviral and antimicrobial properties” (Eastern Virginia Medical School, priority 2007, dated 2016).
# pEC50: −log10 of the molar value. Where two headings read alike, the source gives them in different places.
# Tests used:
# Format in all cases: cell-based
# [1] = system: HIV-1 BaL (cell-free virus); experiment: Single-round infection assay, cell-free virus BaL; details: for IC50: Human immunodeficiency virus 1, BAL, read-out: IC50 Cell-Free Virus BaL
# [2] = system: HIV-1 IIIB (cell-free virus); experiment: microbe, parasite or virus in culture; details: for IC50: Human immunodeficiency virus 1, IIIB, read-out: IC50 Cell-Free Virus IIIB; for EC50 Cell-free HIV-1 (IIIB) / pEC50: Table 8; for pEC50: read-out: EC50 Cell-free HIV-1 (IIIB)
# [3] = system: Cell-associated HIV-1, SupT1 (IIIB); experiment: Single-round infection assay, cell-associated virus SupT1 (IIIB); details: for IC50: Human immunodeficiency virus 1, IIIB
# [4] = Table 1, 2 h incubation, wash, 48 h culture
# [5] = SUP-T1, Table 1, 2 h incubation, wash, 48 h culture, read-out: IC50 Cell-Associated Virus SupT1 (IIIB)
# [6] = 2 h incubation, wash, 48 h culture
compound,measurement,setting,value
"CCCCCCCCCCCCCCC(=O)OC[C@H]1O[C@@H](n2cc(C)c(=O)[nH]c2=O)C[C@@H]1N=[N+]=[N-] [3′-azido-2′,3′-dideoxy-5′-O-(pentadecanoyl)thymidine]",IC50 Cell-Free Virus BaL,[1]; [4],2.2 µg/mL
same,IC50 Cell-Free Virus IIIB,[2]; [4],8.8 µg/mL
same,IC50 Cell-Associated Virus SupT1 (IIIB),[3]; [4],>100 µg/mL
"[N-]=[N+]=NCCCCCCCCCCCC(=O)OC[C@H]1O[C@@H](n2ccc(N)nc2=O)CS1 [5′-O-(12-azidododecanoyl)-2′,3′-dideoxy-3′-thiacytidine]",IC50,[1]; [4],0.08 µg/mL
same,IC50,[2]; [4],0.88 µg/mL
same,IC50,[3]; [5],> 100 µg/mL
"Cc1cn([C@H]2C=C[C@@H](COC(=O)CCCCCCCCCCCBr)O2)c(=O)[nH]c1=O [12-bromododecanoyl-2′,3′-didehydro-2′,3′-dideoxythymidine]",IC50 Cell-Free Virus BaL,[1]; [4],1.1 µg/mL
same,IC50 Cell-Free Virus IIIB,[2]; [4],7.2 µg/mL
same,IC50 Cell-Associated Virus SupT1 (IIIB),[3]; [4],>100 µg/mL
"Cc1cn([C@H]2C[C@H](N=[N+]=[N-])[C@@H](COC(=O)CCCCCCCCCCCBr)O2)c(=O)[nH]c1=O [3′-azido-2′,3′-dideoxy-5′-O-(12-bromododecanoyl)thymidine]",IC50 Cell-Free Virus BaL,[1]; [4],2.6 µg/mL
same,IC50 Cell-Free Virus IIIB,[2]; [4],5.6 µg/mL
same,IC50 Cell-Associated Virus SupT1 (IIIB),[3]; [4],>100 µg/mL
CCCCCCCCCCCCCC(=O)NC(CCC(=O)OC[C@H]1O[C@@H](n2cc(C)c(=O)[nH]c2=O)C[C@@H]1F)C(=O)OC[C@H]1O[C@@H](n2cc(C)c(=O)[nH]c2=O)C[C@@H]1N=[N+]=[N-] (some centres unmarked) [KPH-99],EC50 Cell-free HIV-1 (IIIB),[2]; [6],2.0 µg/mL
same,pEC50,[2]; [6],5.62
"CCCCCSCCCCCCCC(=O)OC[C@H]1O[C@@H](n2cc(C)c(=O)[nH]c2=O)C[C@@H]1F [3′-fluoro-2′,3′-dideoxy-5′-O-(9-thiatertradecanoyl)thymidine]",IC50 Cell-Free Virus BaL,[1]; [4],2.1 µg/mL
same,IC50 Cell-Free Virus IIIB,[2]; [4],5.4 µg/mL
same,IC50 Cell-Associated Virus SupT1 (IIIB),[3]; [4],>100 µg/mL
"CCCCCCCCCCCCCC(=O)OC[C@H]1O[C@@H](n2cc(F)c(N)nc2=O)CS1 [5′-O-tetradecanoyl-2′,3′-dideoxy-5-fluoro-3′-thiacytidine]",IC50,[1]; [4],0.033 µg/mL
same,IC50,[2]; [4],0.056 µg/mL
same,IC50,[3]; [5],1.7 µg/mL
"Nc1nc(=O)n([C@H]2CS[C@@H](CO)O2)cc1F [2′,3′-dideoxy-5-fluoro-3′-thiacytidine, reference compound]",IC50,[1]; [4],0.18 µg/mL
same,IC50,[2]; [4],0.48 µg/mL
same,IC50,[3]; [5],21.9 µg/mL
"Cc1cn([C@H]2C[C@H](F)[C@@H](COC(=O)CCCCCCCCCCCN)O2)c(=O)[nH]c1=O [3′-fluoro-2′,3′-dideoxy-5′-O-(12-aminododecanoyl)thymidine]",IC50 Cell-Free Virus IIIB,[2]; [4],0.67 µg/mL
"CCSCCCCCCCCCCCC(=O)OC[C@H]1O[C@@H](n2ccc(N)nc2=O)CS1 [5′-O-(13-thiapentadecanoyl)-2′,3′-dideoxy-3′-thiacytidine]",IC50,[1]; [4],< 0.1 µg/mL
same,IC50,[2]; [4],1.1 µg/mL
same,IC50,[3]; [5],> 100 µg/mL
"CCCCCCCCCCCCCCOC[C@H]1O[C@@H](n2cc(C)c(=O)[nH]c2=O)C[C@@H]1F [3′-fluoro-2′,3′-dideoxy-5′-O-(tetradecyl)thymidine]",IC50 Cell-Free Virus BaL,[1]; [4],77.3 µg/mL
same,IC50 Cell-Free Virus IIIB,[2]; [4],79.1 µg/mL
same,IC50 Cell-Associated Virus SupT1 (IIIB),[3]; [4],>100 µg/mL
"CCCCCCCCCCCCCCOC[C@H]1O[C@@H](n2cc(C)c(=O)[nH]c2=O)C[C@@H]1N=[N+]=[N-] [3′-azido-2′,3′-dideoxy-5′-O-(tetradecyl)thymidine]",IC50 Cell-Free Virus BaL,[1]; [4],12.8 µg/mL
same,IC50 Cell-Free Virus IIIB,[2]; [4],57.8 µg/mL
same,IC50 Cell-Associated Virus SupT1 (IIIB),[3]; [4],>100 µg/mL
"Cc1cn([C@H]2C[C@H](N=[N+]=[N-])[C@@H](COC(=O)CCC(=O)OC[C@H]3O[C@@H](n4cc(C)c(=O)[nH]c4=O)C[C@@H]3N=[N+]=[N-])O2)c(=O)[nH]c1=O [KPH-913, AZT-succinate-AZT]",EC50 Cell-free HIV-1 (IIIB),[2]; [6],8.6 µg/mL
same,pEC50,[2]; [6],4.86
"[N-]=[N+]=NCCCCCCCCCCCC(=O)OC[C@H]1O[C@@H](n2cc(F)c(N)nc2=O)CS1 [5′-O-(12-azidododecanoyl)-2′,3′-dideoxy-5-fluoro-3′-thiacytidine]",IC50,[1]; [4],0.11 µg/mL
same,IC50,[2]; [4],0.39 µg/mL
same,IC50,[3]; [5],4.3 µg/mL
"CC(=O)NC(CCC(=O)OC[C@H]1O[C@@H](n2cc(C)c(=O)[nH]c2=O)C[C@@H]1N=[N+]=[N-])C(=O)OC[C@@H]1O[C@H](n2ccc(N)nc2=O)CS1 (some centres unmarked) [KPH-911, AZT(Glutamyl)-3TC]",EC50 Cell-free HIV-1 (IIIB),[2]; [6],7.8 µg/mL
same,pEC50,[2]; [6],4.92
"CC(=O)NC(CCC(=O)OC[C@H]1O[C@@H](n2cc(C)c(=O)[nH]c2=O)C[C@@H]1F)C(=O)OC[C@H]1O[C@@H](n2cc(C)c(=O)[nH]c2=O)C[C@@H]1N=[N+]=[N-] (some centres unmarked) [KPH-98, FLT(Glutamyl)-AZT]",EC50 Cell-free HIV-1 (IIIB),[2]; [6],9.0 µg/mL
same,pEC50,[2]; [6],4.87
"CC(=O)NC(CCC(=O)OC[C@H]1O[C@@H](n2cc(C)c(=O)[nH]c2=O)C[C@@H]1F)C(=O)OC[C@@H]1O[C@H](n2ccc(N)nc2=O)CS1 (some centres unmarked) [KPH-96, FLT(Glutamyl)-3TC]",EC50 Cell-free HIV-1 (IIIB),[2]; [6],10.7 µg/mL
same,pEC50,[2]; [6],4.77
"Cc1cn([C@H]2C=C[C@@H](CO)O2)c(=O)[nH]c1=O [2′,3′-didehydro-2′,3′-dideoxythymidine, reference compound]",IC50,[1],6.3 µg/mL
same,IC50,[2],6 µg/mL
same,IC50,"[3]; SUP-T1, read-out: IC50 Cell-Associated Virus SupT1 (IIIB)",30.5 µg/mL
CCCCCCCCCCCCCC(=O)NC(CCC(=O)OC[C@H]1O[C@@H](n2cc(C)c(=O)[nH]c2=O)C[C@@H]1F)C(=O)OC[C@@H]1O[C@H](n2ccc(N)nc2=O)CS1 (some centres unmarked) [KPH-97],EC50 Cell-free HIV-1 (IIIB),[2]; [6],1.6 µg/mL
same,pEC50,[2]; [6],5.70
"CCCCCCCCCCCCCC(=O)OC[C@H]1O[C@@H](n2cc(C)c(=O)[nH]c2=O)C[C@@H]1N=[N+]=[N-] [3′-azido-2′,3′-dideoxy-5′-O-(tetradecanoyl)thymidine]",IC50 Cell-Free Virus BaL,[1]; [4],2.4 µg/mL
same,IC50 Cell-Free Virus IIIB,[2]; [4],1.5 µg/mL
same,IC50 Cell-Associated Virus SupT1 (IIIB),[3]; [4],>100 µg/mL
"Cc1cn([C@H]2C[C@H](N=[N+]=[N-])[C@@H](COC(=O)CCC(NC(=O)CCC(=O)OC[C@H]3O[C@@H](n4cc(C)c(=O)[nH]c4=O)C[C@@H]3F)C(=O)OC[C@@H]3O[C@H](n4ccc(N)nc4=O)CS3)O2)c(=O)[nH]c1=O (some centres unmarked) [KPH-914, FLT-Succinate-AZT(glutamyl)-3TC]",EC50 Cell-free HIV-1 (IIIB),[2]; [6],0.9 µg/mL
same,pEC50,[2]; [6],6.02
Sodium cellulose sulfate-succinate-AZT (17.2%) [CS-Suc-AZT],EC50 Cell-Free Virus BaL,[1]; Table 4,9.9 µg/mL
same,EC50 Cell-Free Virus IIIB,[2]; Table 4,2.2 µg/mL
same,EC50 Cell-Associated Virus SupT1-IIIB,[3]; Table 4,74.8 µg/mL
"Cc1cn(C2C=CC(COC(=O)CCCCCCCCCCCSCCN=[N+]=[N-])O2)c(=O)[nH]c1=O (centres unmarked) [5′-O-(12-thioethylazidodecanoyl)-2′,3′-didehydro-2′,3′-dideoxythymidine]",IC50 Cell-Free Virus BaL,[1]; [4],2.7 µg/mL
same,IC50 Cell-Free Virus IIIB,[2]; [4],6.7 µg/mL
same,IC50 Cell-Associated Virus SupT1 (IIIB),[3]; [4],21.7 µg/mL
"CCSCCCCCCCCCCCC(=O)OC[C@H]1O[C@@H](n2cc(F)c(N)nc2=O)CS1 [5′-O-(13-thiapentadecanoyl)-2′,3′-dideoxy-5-fluoro-3′-thiacytidine]",IC50,[1]; [4],0.02 µg/mL
same,IC50,[2]; [4],0.024 µg/mL
same,IC50,[3]; [5],2.4 µg/mL
"CCSCCCCCCCCCCCC(=O)Nc1ccn([C@H]2CS[C@@H](CO)O2)c(=O)n1 [N4-(13-thiapentadecanoyl)-2′,3′-dideoxy-3′-thiacytidine]",IC50,[1]; [4],0.2 µg/mL
same,IC50,[2]; [4],2.5 µg/mL
same,IC50,[3]; [5],> 100 µg/mL
"CCCCCCCCCCCCCC(=O)Nc1ccn([C@H]2CS[C@@H](COC(=O)CCCCCCCCCCCCC)O2)c(=O)n1 [N4, 5′-O-dimyristoyl-2′,3′-dideoxy-3′-thiacytidine]",IC50,[1]; [4],87.8 µg/mL
same,IC50,[2]; [4],> 100 µg/mL
same,IC50,[3]; [5],> 100 µg/mL
"Suramin-3′-azido-2′,3′-dideoxythymidine [Suramin-AZT]",EC50 Cell-Free Virus BaL,[1]; Table 6,7.3 µg/mL
same,EC50 Cell-Free Virus IIIB,[2]; Table 6,19.4 µg/mL
"CCSCCCCCCCCCCC(=O)OC[C@H]1O[C@@H](n2cc(C)c(=O)[nH]c2=O)C[C@@H]1N=[N+]=[N-] [3′-azido-2′,3′-dideoxy-5′-O-(11-thioethylundecanoyl)thymidine]",IC50 Cell-Free Virus BaL,[1]; [4],2.6 µg/mL
same,IC50 Cell-Free Virus IIIB,[2]; [4],3.8 µg/mL
same,IC50 Cell-Associated Virus SupT1 (IIIB),[3]; [4],44.9 µg/mL
"[N-]=[N+]=NCCCCCCCCCCCC(=O)Nc1ccn([C@H]2CS[C@@H](CO)O2)c(=O)n1 [N4-(12-azidodecanoyl)-2′,3′-dideoxy-3′-thiacytidine]",IC50 Cell-Free Virus BaL,[1]; [4],1.7 µg/mL
same,IC50 Cell-Free Virus IIIB,[2]; [4],13.3 µg/mL
same,IC50 Cell-Associated Virus SupT1 (IIIB),[3]; [4],6.6 µg/mL
"Cc1cn([C@H]2C=C[C@@H](COC(=O)CCCCCCCCCCCN=[N+]=[N-])O2)c(=O)[nH]c1=O [5′-O-(12-azidodecanoyl)-2′,3′-didehydro-2′,3′-dideoxythymidine]",IC50 Cell-Free Virus BaL,[1]; [4],1.4 µg/mL
same,IC50 Cell-Free Virus IIIB,[2]; [4],3.0 µg/mL
same,IC50 Cell-Associated Virus SupT1 (IIIB),[3]; [4],10.0 µg/mL
"[N-]=[N+]=NCCCCCCCCCCCC(=O)Nc1ccn(C2CSC(COC(=O)CCCCCCCCCCCN=[N+]=[N-])O2)c(=O)n1 (centres unmarked) [N4, 5′-O-di(12-azidodecanoyl)-2′,3′-dideoxy-3′-thiacytidine]",IC50 Cell-Free Virus BaL,[1]; [4],49.1 µg/mL
same,IC50 Cell-Free Virus IIIB,[2]; [4],>100 µg/mL
same,IC50 Cell-Associated Virus SupT1 (IIIB),[3]; [4],>100 µg/mL
"Suramin-3′-fluoro-2′,3′-dideoxythymidine [Suramin-FLT]",EC50 Cell-Free Virus BaL,[1]; Table 6,6.2 µg/mL
same,EC50 Cell-Free Virus IIIB,[2]; Table 6,23.6 µg/mL
"Cc1cn([C@H]2C[C@H](F)[C@@H](COC(=O)CCC(=O)OC[C@H]3O[C@@H](n4cc(C)c(=O)[nH]c4=O)C[C@@H]3F)O2)c(=O)[nH]c1=O [KPH-912, FLT-succinate-FLT]",EC50 Cell-free HIV-1 (IIIB),[2]; [6],2.1 µg/mL
same,pEC50,[2]; [6],5.43
CCCCCCCCCCCCCC(=O)NC(CCC(=O)OC[C@H]1O[C@@H](n2cc(C)c(=O)[nH]c2=O)C[C@@H]1N=[N+]=[N-])C(=O)OC[C@@H]1O[C@H](n2ccc(N)nc2=O)CS1 (some centres unmarked) [KPH-910],EC50 Cell-free HIV-1 (IIIB),[2]; [6],4.9 µg/mL
same,pEC50,[2]; [6],5.22
